Data on two compounds can be found in publication PMC10419416, “Fighting Pseudomonas aeruginosa Infections: Antibacterial and Antibiofilm Activity of D-Q53 CecB, a Synthetic Analog of a Silkworm Natural Cecropin B Variant” (International Journal of Molecular Sciences, 2023).

Type in all cases: cell-based, Pseudomonas aeruginosa
Assay [1] deals with P. aeruginosa ATCC 27853 and ATCC 25668 strains. Nature of the assay: Growth curves with sub-MIC concentrations. The conditions noted are these: growth curves 14 h, OD600, AUC vs untreated; both strains; 1 MIC = 2.2 μM. How it is done:
Microbial suspensions in LB medium (positive controls) and wells with LB medium only (negative controls) were followed in parallel. Plates were incubated at 37 °C with agitation (300 rpm), and the absorbance was measured every 2 h for 14 h at 600 nm. For each time point, a ΔOD600 was determined by subtracting the OD600 recorded at time 0 from those obtained at the different time-points. To establish the peptide concentration not inhibiting bacterial growth, for each treatment, the Area Under the Curve (AUC) was calculated and compared to that of untreated controls.
Supplementary Figure S3. Growth curves of P. aeruginosa treated with of L-Q 53 CecB and D-Q 53 CecB peptides at sub-MIC concentrations. ATCC 27853 strain treated with (A) L-Q 53 CecB and (B) D-Q 53 CecB. ATCC 25668 strain treated with (C) L-Q 53 CecB and (D) D-Q 53 CecB. Bacteria treated with 1 MIC L- or D- Q53 CecB peptides and untreated bacteria represent positive and negative controls, respectively. One-w ay ANOVA followed by post-h oc Dunnett’s tests […]
samples and negative controls [A TCC 27853: (A) F4, 10 = 257.8, p < 0.0001; 1/2 MIC L-Q 53 CecB vs negative controls:
Dunnett’s test p > 0.05, ns; (B) F 4,10 = 256.9, p < 0.0001; 1/4 MIC D-Q 53 CecB vs negative controls: Dunnett’s test p > 0.05, […]
= 43.58, p < 0.0001; 1/4 MIC D-Q 53 CecB vs negative controls: Dunnett’s test p > 0.05, ns]. […]

Assay [2] relates to P. aeruginosa ATCC 25668 strain. In words: EPS determination, phenol-sulfuric acid method. Conditions: 20 h incubation; 1/2 MIC L-Q53 CecB or 1/4 MIC D-Q53 CecB; OD490. The procedure:
Experiments were performed in LB medium supplemented 2% glucose to enhance the EPS production, as in [46]. Five mL of bacterial cultures (1 × 10^6 cells/mL) were added to the same volume of the peptide at a dilution not-inhibiting the bacterial growth (final concentrations 1.1 and 0.55 µM for L- and D-Q53 CecB, respectively, as in Section 4.11) and incubated at 37 °C for 20 h with agitation (200 rpm). 10 mL of bacterial culture (5 × 10^5 cells/mL) without any peptide were grown in parallel. Samples were incubated at 37 °C for 20 h with agitation. Glucan levels were determined as in [46, 75] with some modifications. For each sample, 5 mL were centrifuged at 5000× g for 10 min, and supernatants were collected in clean tubes; pellets were washed twice in 2.5 mL autoclaved water and centrifuged at 5000× g for 10 min, collecting supernatants again. Three volumes of chilled absolute ethanol were added to the collected supernatants and placed at 4 °C ON to precipitate polysaccharides. After centrifugation at 10,000× g for 10 min, pellets were washed with chilled ethanol 70% and resuspended in 5 mL 0.1 M NaOH. Two mL of 5% aqueous solution of phenol and 5 mL of concentrated sulphuric acid were added. Mixtures were incubated 10 min at RT in the dark, vortexed 30 sec, placed in a water bath at 25 °C 20 min and read at 490 nm. The experiment was performed four times, each condition in duplicate.

Assay [3] deals with P. aeruginosa biofilms (ATCC 25668). In words: Confocal live/dead staining of biofilm-embedded cells. Conditions: 1 h treatment with 1 MIC (2.2 µM) of 24 h-old biofilm; SYTO 9 / Propidium Iodide. The procedure:
Bacteria cells (1 × 10^6 cells/mL) were grown in Permanox four-wells chamber slide systems (1.8 cm^2/well; Nunc® Lab-Tek® Chamber Slide™ system) at 37 °C for 24 h without agitation to allow biofilm formation. After washing, biofilms were treated with 2.2 μM L- or D-Q53 CecB peptide for 1 h at 37 °C without agitation. Negative controls, treated with LB only, were followed in parallel.
To visualize live/dead bacteria, samples were stained with 12. 5 μM SYTO™ 9 (Thermo Fisher Scientific) (green, total cells) and 70 μM Propidium Iodide (Merck) (red, dead cells) for 30 min. After washing with PBS, samples were mounted in VECTASHIELD® mounting medium (Vector Laboratories) and observed using a Leica TCS SP5 II confocal microscope, using a ×63 oil immersion objective and a digital magnification of ×3. Optical sections (Z-series) were taken at 0.13 μm intervals. For each condition, experiments were repeated at least twice.
To detect bacteria (green), excitation and emission wavelengths were 488 and 500–530 nm, respectively. EPS was visualized using a 405 nm wavelength for excitation and 413–480 nm for emission (blue); to detect proteins or Propidium Iodide (red), a 543 nm wavelength for excitation and 590–610 nm for emission were used. Post-acquisition analyses were performed with Fiji (http://fiji.sc/wiki/index.php, downloaded on 4 April 2022). […]

The test system of assay [4] is P. aeruginosa ATCC 25668 (lasI, rpoS, fimX, pslA, pelA, algD). In words: Real-time qPCR of genes involved in biofilm formation. Conditions: 20 h; 1/2 MIC L- or 1/4 MIC D-Q53 CecB; normalised to rplU. How it is done: Bacteria were collected after centrifugation and stored in Trizol Reagent (Ambion, Waltham, MA, USA) at −80 °C, until use. Total RNA was extracted using the Direct-zol RNA MiniPrep kit (Zymo Research, Irvine, CA, USA). The complementary DNA (cDNA) was synthesized using the Maxima™ H Minus cDNA Synthesis Master Mix with dsDNase (Molecular biology, Thermo Scientific). Each qPCR reaction was performed in triplicate, using the GoTaq qPCR Master Mix (Promega, Madison, WI, USA) and a CFX96 Real-Time PCR Detection System (Bio-Rad, Hercules, CA, USA), following the manufacturer’s instructions. The amplification conditions were 95 °C 2 min, (15 s at 95 °C, 1 min at the appropriate annealing temperature Ta, as in Table 5) ×40 cycles. The rplU gene, coding the 50 S ribosomal protein, was used to normalize qPCR data as in [36]. Fold changes were calculated by the 2^−ΔΔCT analysis method.
In general terms: In qPCR the cycle at which signal appears reflects the starting amount.

Non-standard residues stand in square brackets, D forms with d. Residues, ends and D or L forms follow the SMILES beside them. No end group written: not given here.

`CC[C@@H](C)[C@@H](NC(=O)[C@@H](C)NC(=O)[C@@H](CCCCN)NC(=O)[C@@H](C)NC(=O)[C@@H](CO)NC(=O)CNC(=O)[C@@H](CC(C)C)NC(=O)[C@H](NC(=O)[C@@H](CCC(N)=O)NC(=O)[C@H](NC(=O)[C@@H](C)NC(=O)[C@H]1CCCN1C(=O)CNC(=O)[C@@H](C)NC(=O)[C@@H](CCCCN)NC(=O)[C@H](NC(=O)[C@H](NC(=O)CNC(=O)[C@@H](CC(=O)O)NC(=O)[C@@H](CCCNC(=N)N)NC(=O)[C@H](NC(=O)[C@@H](CC(N)=O)NC(=O)[C@@H](CCCNC(=N)N)NC(=O)CNC(=O)[C@@H](CCSC)NC(=O)[C@@H](CCCCN)NC(=O)[C@@H](CCC(=O)O)NC(=O)[C@H](NC(=O)[C@@H](CCCCN)NC(=O)[C@@H](CCCCN)NC(=O)[C@@H](Cc1ccccc1)NC(=O)[C@H](NC(=O)[C@@H](CCCCN)NC(=O)[C@@H](Cc1c[nH]c2ccccc12)NC(=O)[C@H](N)CCCNC(=N)N)[C@H](C)CC)[C@H](C)CC)[C@H](C)CC)[C@H](C)CC)C(C)C)[C@H](C)CC)C(C)C)C(N)=O` [D-Q53 CecB] (H-[dR][dW][dK][dI][dF][dK][dK][dI][dE][dK][dM]G[dR][dN][dI][dR][dD]G[dI][dV][dK][dA]G[dP][dA][dI][dQ][dV][dL]G[dS][dA][dK][dA][dI]-NH2; N-terminus and C-terminus assumed): the “sub-MIC concentration not inhibiting bacterial growth” value in assay [1] is reported as 1/4. In addition, the “effect on water-soluble EPS production” value in assay [2] is reported as “significantly reduce”. For the same compound, the “red/green (dead/total) cell ratio vs untreated controls” value in assay [3] is “Significant increments”. In addition, in assay [4], the “expression level of fimX” value is reported as “not significantly different”, the “expression level of lasI” value is on record as “did not significantly alter”, the “expression level of rpoS” value is recorded as “did not significantly alter” and the “expression of algD” value is listed as “significantly lower”. Moreover, in assay [4], the “expression of pelA” value is given as “significantly lower” and the “transcription of pslA” value is “did not affect”.
With “RWKIFKKIEKMGRNIRDGIVKAGPAIQVLGSAKAI-NH2 [L-Q53 CecB]”, the “sub-MIC concentration not inhibiting bacterial growth” value in assay [1] is recorded as 1/2. Further, in assay [2], the “effect on water-soluble EPS production” value is given as “did not show any significant effect”. In addition, the “red/green (dead/total) cell ratio vs untreated controls” value in assay [3] is on record as “Significant increments”. Besides, in assay [4], the “expression level of fimX” value is listed as “not significantly different”, the “expression level of lasI” value is “did not significantly alter”, the “expression level of rpoS” value is given as “did not significantly alter” and the “expression of algD” value is given as “None of the analyzed genes were altered”. Further, in assay [4], the “expression of pelA” value was “None of the analyzed genes were altered” and the “transcription of pslA” value was “did not affect”.
